“And” between values parts separate entries of the source, which are not always exact repeats. Equal entries are not always repeated.

A short description of series [1]: Hydrogen peroxide scavenging activity (HPSA). To be noted: 10 min at 37 °C, absorbance at 230 nm. On the procedure: The Manolov et al. approach was used to evaluate the capacity to scavenge hydrogen peroxide. A 43 mM solution of H2O2 was prepared in a potassium phosphate buffer solution (0.2 M, pH 7.4). The analysis of the samples was carried out as follows: in test tubes, 0.6 mL H2O2 (43 mM), 1 mL sample/standard of different concentrations (20–1000 µg/mL), and 2.4 mL potassium phosphate buffer solution were mixed. The mixture was stirred and incubated in the dark for 10 min at 37 °C. Absorbance was measured at 230 nm with a spectrophotometer (Camspec M508, Leeds, UK) against a blank solution containing phosphate buffer and H2O2 without the sample. Ascorbic acid and quercetin were used as standards. The percentage HPSA of the samples was evaluated by comparing them to a blank sample and was calculated using the following formula:(1) I,%(HPSA)=Ablank−(ATS−ACS)/Ablank×100 where Ablank is the absorbance of the blank sample, ACS is the absorbance of the control sample, and ATS is the absorbance of the test sample.

Series [2] in a line: Hydroxyl radical scavenging activity (HRSA). To be noted: 1 h at 37 °C, absorbance at 510 nm. The procedure: Hydroxyl radical scavenging activities of different fractions of 2-ABT-profenes were determined according to the method described by Guo [47]. The scavenging of hydroxyl radicals was performed as follows: 0.3 mL sodium salicylate (20 mM), 1 mL FeSO4 (1.5 mM), 1 mL sample/standard of different concentrations (20–1000 µg/mL), and 0.7 mL H2O2 (6 mM) were mixed immediately. Then, the reaction tubes were put in a 37 °C water bath for 1 h, and the absorbance of the mixture was recorded at 510 nm against a blank. We used standards with proven high antioxidant activity such as ascorbic acid and quercetin. The hydroxyl radical scavenging ability was calculated as follows:(2) I,%(HRSA)=Ablank−Asample/Ablank×100 where Ablank is the absorbance without samples and Asample is the absorbance in the presence of the samples.

Series [3] has as its target T1, human albumin (Homo sapiens, UniProt P02768).
T1 construct: purchased BB-NCIPD Ltd., Sofia, Bulgaria Human albumin 20%—BB, 200 g/L
Description: Inhibition of albumin denaturation (IAD), in vitro anti-inflammatory activity. The format is biochemical. To be noted: human albumin 1%, heated at 70 °C for 15 min, turbidity at 660 nm; read-out: IAD IC50 ± SD (converted). The procedure: In vitro analysis of anti-inflammatory activity was assessed as the inhibition of albumin denaturation (IAD). The analysis was performed according to Manolov’s method, with minor modifications. The experiment was performed with human albumin. The solution of albumin (1%) was prepared in distilled water (pH 7.4). Test samples/standards were first dissolved in 1.2 mL of DMSO and then supplemented with 1% Tween 80 in PBS so that the final concentration of the stock solution was 1000 μg/mL. Then, a series of working solutions with different concentrations (20–500 μg/mL) in 1% Tween 80/PBS were prepared. The reaction mixture contained a 2 mL test sample/standard of different concentrations and 1 mL albumin (1%). The mixture was incubated at 37 °C for 15 min and then heated at 70 °C for 15 min in a water bath. After cooling, the turbidity was measured at 660 nm with a spectrophotometer (Camspec M508, Leeds, UK). Ibuprofen was used as a standard. The experiment was performed three times. The percentage inhibition of albumin denaturation (IAD) was calculated against the control. The control sample consisted of the same concentration of albumin dissolved in distilled water. (3) %IAD=Ablank−Asample/Ablank×100

A short description of series [4]: Lipophilicity as RM values by reversed-phase thin-layer chromatography. It is filed as physicochemical. Conditions: reversed-phase TLC, dimensionless. The text has this: Lipophilicity can be evaluated through calculations or experimental methods. In our study, we measured the lipophilicity of the synthesized 2-ABT derivatives using a practical method: reversed-phase thin-layer chromatography, as described by Hadjipavlou-Litina. The lipophilicity increased in the following order based on the experimentally obtained RM values: 3a (1.629) < […] < 3e (1.736) < 3b (1.941) < 3c (2.02). Compound 3c is the most lipophilic experimentally, followed by 3b, while 3a is the least lipophilic.
The determination of lipophilicity of 2-ABT derivatives was estimated according to the method reported by Pontiki and Hadjipavlou-Litina.

T1 sequence (P02768 25-609): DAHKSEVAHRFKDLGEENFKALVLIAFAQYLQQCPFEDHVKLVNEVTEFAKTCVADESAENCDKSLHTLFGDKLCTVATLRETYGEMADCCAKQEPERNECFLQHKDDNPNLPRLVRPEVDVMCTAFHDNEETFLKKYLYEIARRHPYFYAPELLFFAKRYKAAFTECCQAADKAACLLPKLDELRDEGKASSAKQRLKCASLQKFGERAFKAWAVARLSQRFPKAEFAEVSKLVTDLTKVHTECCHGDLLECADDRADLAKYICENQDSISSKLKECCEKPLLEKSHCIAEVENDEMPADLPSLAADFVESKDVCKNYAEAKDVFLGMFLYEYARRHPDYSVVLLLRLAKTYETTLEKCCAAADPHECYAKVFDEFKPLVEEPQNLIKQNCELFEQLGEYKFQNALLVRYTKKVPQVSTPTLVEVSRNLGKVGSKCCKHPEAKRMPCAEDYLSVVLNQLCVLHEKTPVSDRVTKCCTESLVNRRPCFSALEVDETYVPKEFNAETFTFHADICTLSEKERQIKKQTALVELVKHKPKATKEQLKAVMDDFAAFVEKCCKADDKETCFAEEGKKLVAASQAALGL

In general, IC50 refers to the concentration at which inhibition is half-maximal. `CC(C)Cc1ccc(C(C)C(=O)Nc2nc3ccccc3s2)cc1` (stereo not shown) [Compound 3a, N-(benzo[d]thiazol-2-yl)-2-(4-isobutylphenyl)propanamide]: the “HPSA IC50 ± SD” value in series [1] was found to be 65.51 ± 0.30 µg/mL. Also, the “HRSA IC50 ± SD” value in series [2] came out at 375.06 ± 14.62 µg/mL. For the same compound, the IC50 in series [3] is 473 µM. In addition, in series [4], the “RM ± SD” value is 1.629 ± 0.009 and 1.629.
With `COc1ccc2cc(C(C)C(=O)Nc3nc4ccccc4s3)ccc2c1` (stereo not shown) [Compound 3c, N-(benzo[d]thiazol-2-yl)-2-(6-methoxynaphthalen-2-yl)propanamide], in series [1], the “HPSA IC50 ± SD” value came to 67.71 µg/mL. Moreover, the “HRSA IC50 ± SD” value in series [2] was found to be 317.91 ± 11.61 µg/mL. Further, in series [3], the IC50 was 178 µM. Besides, in series [4], the “RM ± SD” value was 2.020 ± 0.046 and 2.02.
With `O=C1O[C@H]([C@@H](O)CO)C(O)=C1O` [AA, ascorbic acid, reference compound], the “HPSA IC50 ± SD” value in series [1] stood at 24.84 ± 0.35 µg/mL. Besides, the “HRSA IC50 ± SD” value in series [2] stood at 129.84 ± 4.52 µg/mL.
For `CC(C(=O)Nc1nc2ccccc2s1)c1ccc(-c2ccccc2)c(F)c1` (stereo not shown) [Compound 3e, N-(benzo[d]thiazol-2-yl)-2-(2-fluoro-[1,1′-biphenyl]-4-yl)propanamide], the “HPSA IC50 ± SD” value in series [1] is 63.05 ± 0.28 µg/mL. For the same compound, the “HRSA IC50 ± SD” value in series [2] was 429.59 ± 21.49 µg/mL. In addition, the IC50 in series [3] is 157 µM. The “RM ± SD” value in series [4] was 1.736 ± 0.015 and 1.736.
As to `CC(C)Cc1ccc(C(C)C(=O)O)cc1` (stereo not shown) [Ibu, ibuprofen, reference compound], the “RM ± SD” value in series [4] is 1.110 ± 0.010.
As to `CC(C(=O)Nc1nc2ccccc2s1)c1cccc(C(=O)c2ccccc2)c1` (stereo not shown) [Compound 3b, N-(benzo[d]thiazol-2-yl)-2-(3-benzoylphenyl)propanamide], the “HPSA IC50 ± SD” value in series [1] is 60.24 µg/mL. The “HRSA IC50 ± SD” value in series [2] was determined as 285.13 ± 27.44 µg/mL. Further, the IC50 in series [3] is 141 µM. The “RM ± SD” value in series [4] was 1.941 ± 0.010 and 1.941.
For `CC(C(=O)Nc1nc2ccccc2s1)c1ccc2c(c1)[nH]c1ccc(Cl)cc12` (stereo not shown) [Compound 3d, N-(benzo[d]thiazol-2-yl)-2-(6-chloro-9H-carbazol-2-yl)propanamide], in series [1], the “HPSA IC50 ± SD” value is 67.22 ± 0.45 µg/mL. The “HRSA IC50 ± SD” value in series [2] is 551.44 ± 28.48 µg/mL. Moreover, the IC50 in series [3] was 160 µM. In addition, in series [4], the “RM ± SD” value was 1.755 ± 0.014 and 1.755.
On to `O=c1c(O)c(-c2ccc(O)c(O)c2)oc2cc(O)cc(O)c12` [Qrc, quercetin, reference compound], for which the “HPSA IC50 ± SD” value in series [1] amounted to 69.25 ± 1.82 µg/mL. Besides, the “HRSA IC50 ± SD” value in series [2] is 149.18 ± 9.27 µg/mL.

Source of the values: publication PMC11721736, “Synthesis of Novel Benzothiazole–Profen Hybrid Amides as Potential NSAID Candidates” (Molecules, 2024).
